Biological target: T1, SIRT1 (Homo sapiens, UniProt Q96EB6)
T1 sequence (Q96EB6 1-747): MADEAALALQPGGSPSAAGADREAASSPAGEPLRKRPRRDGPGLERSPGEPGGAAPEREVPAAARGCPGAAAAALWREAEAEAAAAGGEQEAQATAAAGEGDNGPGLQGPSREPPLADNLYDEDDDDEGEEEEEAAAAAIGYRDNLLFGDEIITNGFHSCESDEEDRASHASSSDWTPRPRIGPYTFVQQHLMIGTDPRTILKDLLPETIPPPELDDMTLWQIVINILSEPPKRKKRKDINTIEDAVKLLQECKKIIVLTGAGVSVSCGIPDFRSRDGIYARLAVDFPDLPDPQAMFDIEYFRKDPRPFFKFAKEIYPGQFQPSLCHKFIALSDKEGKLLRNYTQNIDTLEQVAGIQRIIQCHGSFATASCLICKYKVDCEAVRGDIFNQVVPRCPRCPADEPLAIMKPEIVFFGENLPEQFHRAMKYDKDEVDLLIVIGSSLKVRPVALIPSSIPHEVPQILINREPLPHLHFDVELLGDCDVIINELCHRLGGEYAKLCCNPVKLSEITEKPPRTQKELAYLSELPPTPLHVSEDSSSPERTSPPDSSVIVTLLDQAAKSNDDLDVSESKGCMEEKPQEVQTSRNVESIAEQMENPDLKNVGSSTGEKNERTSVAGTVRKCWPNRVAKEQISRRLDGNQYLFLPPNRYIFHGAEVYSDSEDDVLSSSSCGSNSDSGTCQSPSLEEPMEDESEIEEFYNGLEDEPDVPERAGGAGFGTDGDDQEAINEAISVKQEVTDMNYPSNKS
Test: Mass spectrometry based SIRT1 deacetylase activation assay (acetylated p53-derived peptide substrate)
Assay type: biochemical

Structure (SMILES)	EC1.5	Fold Act. (percent maximum fold activation)
Cn1ccc(-c2nc3c(C(=O)Nc4nccs4)cccc3[nH]2)n1 [Compound 303]	B (EC1.5 1-25 uM)	A (Fold activation >200%)
Cc1nc(C)c(-c2nc3c(C(=O)Nc4nccs4)cccc3[nH]2)s1 [Compound 304]	A (EC1.5<1.0 uM)	A (Fold activation >200%)
Cc1cc(NC(=O)c2cccc3[nH]c(-c4cccc(C(F)(F)F)c4)nc23)sn1 [Compound 306]	B (EC1.5 1-25 uM)	B (Fold Activation <200%)
CCOC(=O)c1csc(NC(=O)c2cccc3[nH]c(-c4cccc(C(F)(F)F)c4)nc23)n1 [Compound 308]	B (EC1.5 1-25 uM)	A (Fold activation >200%)
O=C(Nc1ccncc1)c1cccc2[nH]c(-c3ccnn3-c3ccccc3)nc12 [Compound 310]	A (EC1.5<1.0 uM)	A (Fold activation >200%)
O=C(Nc1cccnc1)c1cccc2[nH]c(-c3ccnn3-c3ccccc3)nc12 [Compound 311]	B (EC1.5 1-25 uM)	A (Fold activation >200%)
O=C(Nc1nccs1)c1cccc2[nH]c(-c3ccnc(N4CCNCC4)c3)nc12 [Compound 314]	B (EC1.5 1-25 uM)	A (Fold activation >200%)
Cc1nc(C)c(-c2nc3c(C(=O)Nc4ccncc4)cccc3[nH]2)s1 [Compound 318]	A (EC1.5<1.0 uM)	A (Fold activation >200%)
Cc1nc(C)c(-c2nc3c(C(=O)Nc4cccnc4)cccc3[nH]2)s1 [Compound 319]	A (EC1.5<1.0 uM)	A (Fold activation >200%)
Cc1nc(C)c(-c2nc3c(C(=O)Nc4ccccn4)cccc3[nH]2)s1 [Compound 320]	B (EC1.5 1-25 uM)	A (Fold activation >200%)
O=C(Nc1nccs1)c1cccc2[nH]c(-c3cccc(OCC(O)CO)c3)nc12 (centres unmarked) [Compound 324, 2-(3-(2,3-dihydroxypropoxy)phenyl)-N-(thiazol-2-yl)-1H-benzo[d]imidazole-4-carboxamide]	A (EC1.5<1.0 uM)	A (Fold activation >200%)
O=C(Nc1nccs1)c1cccc2[nH]c(-c3ccc(OCC(O)CO)cc3)nc12 (centres unmarked) [Compound 325]	A (EC1.5<1.0 uM)	A (Fold activation >200%)
O=C(Nc1nccs1)c1cccc2[nH]c(-c3ccccc3OCC(O)CO)nc12 (centres unmarked) [Compound 326]	B (EC1.5 1-25 uM)	A (Fold activation >200%)
Cn1nc(C(F)(F)F)c(-c2nc3c(C(=O)Nc4cccnc4)cccc3[nH]2)c1Cl [Compound 328]	A (EC1.5<1.0 uM)	A (Fold activation >200%)
O=C(Nc1cccc2[nH]c(-c3cccc(C(F)(F)F)c3)nc12)c1cccnc1 [Compound 334]	B (EC1.5 1-25 uM)	A (Fold activation >200%)
O=C(Nc1cccc2[nH]c(-c3cccc(C(F)(F)F)c3)nc12)c1cnccn1 [Compound 335]	B (EC1.5 1-25 uM)	A (Fold activation >200%)
O=C(Nc1nccs1)c1cccc2[nH]c(-c3ccc(OCCN4CCOCC4)cc3)nc12 [Compound 339]	A (EC1.5<1.0 uM)	A (Fold activation >200%)
O=C(Nc1nccs1)c1cccc2[nH]c(-c3ccccc3OCCN3CCOCC3)nc12 [Compound 340]	A (EC1.5<1.0 uM)	A (Fold activation >200%)
O=C(Nc1nccs1)c1cncc2[nH]c(-c3ccccc3C(F)(F)F)nc12 [Compound 341, N-(thiazol-2-yl)-2-(2-(trifluoromethyl)phenyl)-3H-imidazo[4,5-c]pyridine-7-carboxamide]	A (EC1.5<1.0 uM)	A (Fold activation >200%)

Second part, the molecule after the results:

EC1.5	Fold Act. (percent maximum fold activation)	Structure (SMILES)
A (EC1.5<1.0 uM)	A (Fold activation >200%)	O=C(Nc1nccs1)c1cccc2[nH]c(-c3ccccc3OC(F)(F)F)nc12 [Compound 305]
B (EC1.5 1-25 uM)	B (Fold Activation <200%)	O=C(Nc1ccc(Cl)nc1)c1cccc2[nH]c(-c3cccc(C(F)(F)F)c3)nc12 [Compound 307]
C (EC1.5 >25 uM)	B (Fold Activation <200%)	O=C(Nc1ccc(Cl)nn1)c1cccc2[nH]c(-c3cccc(C(F)(F)F)c3)nc12 [Compound 309]
A (EC1.5<1.0 uM)	A (Fold activation >200%)	O=C(Nc1cccnc1)c1cccc2[nH]c(-c3ccc(Cl)cc3C(F)(F)F)nc12 [Compound 312]
A (EC1.5<1.0 uM)	A (Fold activation >200%)	O=C(Nc1ccccn1)c1cccc2[nH]c(-c3ccc(Cl)cc3C(F)(F)F)nc12 [Compound 313]
A (EC1.5<1.0 uM)	A (Fold activation >200%)	O=C(Nc1ccncc1)c1cccc2[nH]c(-c3ccc(Cl)cc3C(F)(F)F)nc12 [Compound 315]
A (EC1.5<1.0 uM)	A (Fold activation >200%)	O=C(Nc1ccncc1)c1cccc2[nH]c(-c3cc(F)ccc3C(F)(F)F)nc12 [Compound 316]
A (EC1.5<1.0 uM)	A (Fold activation >200%)	O=C(Nc1cccnc1)c1cccc2[nH]c(-c3cc(F)ccc3C(F)(F)F)nc12 [Compound 317]
A (EC1.5<1.0 uM)	A (Fold activation >200%)	O=C(Nc1ncc(F)s1)c1cccc2[nH]c(-c3ccc(Cl)cc3C(F)(F)F)nc12 [Compound 321]
A (EC1.5<1.0 uM)	A (Fold activation >200%)	O=C(Nc1cc[n+]([O-])cc1)c1cccc2[nH]c(-c3cc(F)ccc3C(F)(F)F)nc12 [Compound 322]
A (EC1.5<1.0 uM)	A (Fold activation >200%)	O=C(Nc1ccccn1)c1cccc2[nH]c(-c3cc(F)ccc3C(F)(F)F)nc12 [Compound 323]
A (EC1.5<1.0 uM)	A (Fold activation >200%)	Cn1nc(C(F)(F)F)c(-c2nc3c(C(=O)Nc4ccccn4)cccc3[nH]2)c1Cl [Compound 327]
B (EC1.5 1-25 uM)	A (Fold activation >200%)	O=C(Nc1cccc[n+]1[O-])c1cccc2[nH]c(-c3ccccc3C(F)(F)F)nc12 [Compound 329, 2-(2-(2-(trifluoromethyl)phenyl)-1H-benzo[d]imidazole-4-carboxamido)pyridine 1-oxide]
B (EC1.5 1-25 uM)	A (Fold activation >200%)	O=C(Nc1cccc[n+]1[O-])c1cccc2[nH]c(-c3ccc(Cl)cc3C(F)(F)F)nc12 [Compound 330]
A (EC1.5<1.0 uM)	A (Fold activation >200%)	O=C(Nc1ccc[n+]([O-])c1)c1cccc2[nH]c(-c3ccc(Cl)cc3C(F)(F)F)nc12 [Compound 331]
B (EC1.5 1-25 uM)	A (Fold activation >200%)	O=C(Nc1cccc2[nH]c(-c3cccc(C(F)(F)F)c3)nc12)c1ccccn1 [Compound 333]
A (EC1.5<1.0 uM)	A (Fold activation >200%)	O=C(Nc1ccc[n+]([O-])c1)c1cccc2[nH]c(-c3ccccc3C(F)(F)F)nc12 [Compound 336]
A (EC1.5<1.0 uM)	A (Fold activation >200%)	O=C(Nc1cc[n+]([O-])cc1)c1cccc2[nH]c(-c3ccccc3C(F)(F)F)nc12 [Compound 337]
A (EC1.5<1.0 uM)	A (Fold activation >200%)	O=C(Nc1cc[n+]([O-])cc1)c1cccc2[nH]c(-c3ccc(Cl)cc3C(F)(F)F)nc12 [Compound 338]
A (EC1.5<1.0 uM)	A (Fold activation >200%)	O=C(Nc1ccccn1)c1cccc2[nH]c(-c3ccc(-c4nnn[nH]4)cc3)nc12 [Compound 342]
A (EC1.5<1.0 uM)	A (Fold activation >200%)	Cc1cnc(NC(=O)c2cccc3[nH]c(-c4ccccc4C(F)(F)F)nc23)s1 [Compound 343]
A (EC1.5<1.0 uM)	A (Fold activation >200%)	Cc1nc(NC(=O)c2cccc3[nH]c(-c4ccccc4C(F)(F)F)nc23)sc1C [Compound 344]
A (EC1.5<1.0 uM)	A (Fold activation >200%)	Cc1cc(C)nc(NC(=O)c2cccc3[nH]c(-c4ccccc4C(F)(F)F)nc23)c1 [Compound 345]
A (EC1.5<1.0 uM)	A (Fold activation >200%)	Cc1cnc(NC(=O)c2cccc3[nH]c(-c4ccc(Cl)cc4C(F)(F)F)nc23)s1 [Compound 346]

Reference: patent publication US8846947B2, “Benzimidazoles and related analogs as sirtuin modulators” (GlaxoSmithKline LLC, priority 2008, dated 2014)
